Where no end group is shown, it is not given here.
What was measured:
E. coli ML35p = experiment: Killing kinetic assay; type: cell-based, Escherichia coli; details: 10^6 CFU/mL, 37 °C; for Time to kill E. coli ML35p at 5× MEC: triplicate averaged
Experimental: To determine the killing activities of ofLBP-derived analogs, kinetic studies were performed using B. subtilis KCTC1021 and E. coli ML35p at 1× MEC and 5× MEC concentrations. Overnight culture of B. subtilis KCTC1021 and E. coli ML35p were diluted in TBS to a cell density of 10^6 CFU/mL and 1 mL of each suspension was exposed to each ofLBP-derived analog and incubated at 37 °C overnight. The resulting colonies were counted. Percent killing was calculated as the proportion of live bacteria at a given time point following the addition of peptide compared to the number of bacteria present prior to the addition of peptide. Control cultures of each bacterium were incubated without any peptide and assayed at time points corresponding to the test culture assays to ensure no spontaneous loss of viability. Killing kinetic assays were also performed in triplicate, and the results were averaged.

[1] = Calcein leakage assay, acidic liposomes; details: DOPC/DOPG (3:1) LUVs 95 µM, 20 mM TES pH 7.4, 25 °C, 3 min, peptide 20 μM
Experimental: (§1) For leakage experiments, large unilamellar vesicles (LUVs) (DOPC or DOPC-DOPG, 3:1) with encapsulated calcein were prepared using the extrusion method. The desired mixtures of phospholipids were dried in glass tubes under nitrogen and then lyophilized overnight to obtain lipid films. The dry lipid films were suspended in leakage buffer (20 mM TES buffer containing 150 mM NaCl, pH 7.4) and 70 mM calcein, and then vortexed occasionally to disperse the lipids. The suspension was freeze–thawed in liquid nitrogen for 10 cycles and extruded 10 times through 0.1-μm polycarbonate membrane filters in an Avanti mini extruder apparatus (Avanti Polar Lipids, Inc., Alabaster, AL, USA). […]
(§2) Leakage of calcein from liposomes was determined as described by Park et al.. […] The increase in the fluorescence of calcein when leaking out of liposomes was monitored at an emission wavelength of 520 nm and an excitation wavelength at 490 nm. The change in fluorescence intensity was measured for 3 min after peptide addition. […] The percentage of dye release was calculated as follows: Dye leakage (%) = 100 × (F − F0)/(Ft − F0) Where F is the fluorescence intensity caused by the peptide and F0 and Ft are those with buffer alone and with 10% Triton X-100, respectively.

[2] = Calcein leakage assay, neutral liposomes; details: DOPC LUVs 95 µM, 20 mM TES pH 7.4, 25 °C, 3 min, peptide 20 μM
Experimental: as §1, §2

Row | Substance | Killing of E. coli ML35p at 1× MEC (E. coli ML35p) | Time to kill E. coli ML35p at 5× MEC (E. coli ML35p) | Leakage of entrapped calcein from acidic liposomes at 20 μM [1] | Leakage of entrapped calcein from neutral liposomes at 20 μM [2]
1 | MKLVKTWLKVLK-NH2 [ofLBP 6A] | did not kill | ≤ 60 min | – | –
2 | Piscidin 1 [reference compound] | did not kill | ≤ 40 min | complete leakage | complete leakage
